The record followed here is patent US8357117B2, “Device and method for delivering an agent into breast milk while breastfeeding” (Family Health International, priority 2008, dated 2013).

Structures are written as SMILES.

The nature of the series: release of SDS from dried SDS-dipped non-woven disk in 10 ml syringe, water gravity fed. The class given is physicochemical. To be noted: non-woven dipped in 20% SDS solution, 3 mm thick disk, no excipients. The text has this:
It was an unexpected result that, without the use of any excipients, a non-woven material could be dipped into an SDS solution to achieve significant loading and release of SDS. Specifically, a piece of soft non-woven material was dipped in a 20% solution of SDS, then dried on a drying rack. After drying, the material was hard and stiff, and felt like a piece of cardboard. It appeared unlikely that the resulting material would even be permeable to water.

Consider `CCCCCCCCCCCCOS(=O)(=O)[O-].[Na+]` [SDS, sodium dodecyl sulphate], for which the “release of SDS into water” value is listed as “rapidly released”.
